The test system of assay [1] is strains VUN 10,010, VUN 10,011 and VUN 10,012. The assay is described as follows: Growth of all the strains on compounds as sole carbon and energy source. The class given is cell-based. To be noted: supplied at 50 mg l^−1. As to the method:
(§1) Gram staining and biochemical tests for bacterial identification were performed according to Collin et al. (1989) following growth in nutrient broth or nutrient agar. […] Compounds tested were added to BSM as a sole carbon and energy source at 50 mg l^−1, and volatile compounds were supplied to the culture in the vapour phase. […] The cells were collected and washed in BSM and the resuspended cells were inoculated into BSM containing different carbon sources. Inoculated BSM without an added carbon source and uninoculated BSM plus carbon source were used as controls. Inocula for the PAH degradation tests were transferred directly from parent cultures, but inocula for other carbon sources were washed prior to inoculation.

The test system of another assay is VUN 110,010. Kind of assay: Growth of PAH-degrading bacteria on a variety of carbon sources. Conditions: substrate 50 mg l^−1 (or vapor phase), sole carbon source. Type of assay: cell-based, Stenotrophomonas maltophilia. As to the method:
as §1

A further assay relates to VUN 110,012. Described as above. The class given is cell-based, Stenotrophomonas maltophilia. To be noted: substrate 50 mg l^−1 (or vapor phase), sole carbon source. How it is done:
as §1

The subject of another assay is VUN 110,013. Type of assay: cell-based, Burkholderia sp. To be noted: substrate 50 mg l^−1 (or vapor phase), sole carbon source. As to the method:
as §1

Another assay deals with VUN 110,011. The assay is described as follows: Growth of PAH-degrading bacteria on a variety of carbon sources. The class given is cell-based, Pseudomonas fluorescens. Conditions: substrate 50 mg l^−1 (or vapor phase), sole carbon source. As to the method:
as §1

Assay [2] relates to S. maltophilia VUN 10,010. The assay is described as follows: Degradation of single high molecular weight PAHs by high initial populations of VUN 10,010 with surfactant. Type of assay: cell-based, Stenotrophomonas maltophilia. How it is done:
[…] Incubations contained a single PAH in BSM at 30° C. The PAH remaining was calculated as a percentage relative to the PAH recovered from the […]. Averages for the test cultures are from triplicate experiments.
Tergitol NP-10 (5 and 10 g l^−1) was added to BSM broths each containing a single high molecular weight PAH.

[3] abbreviates: Tergitol NP-10 5 g l^−1, Single PAH.
The mark [4] stands for this setting: Tergitol NP-10 10 g l^−1, Single PAH.

The values below come from patent US20040023362A1, “Degradation of polycyclic aromatic hydrocarbons by microorganisms” (priority 2000, published 2004).

On to Tween 60, for which the “growth on compound as the sole carbon and energy source” value (from here on “growth on compound”) in assay [1] was “grew”.

For the compound `O=C(O)CCC(=O)O` [Succinic acid], the Growth result in the assay on VUN 110,010, in the assay on VUN 110,012, in the assay with VUN 110,013 and in the assay with VUN 110,011 was “+” each time. Also, the “growth on compound” value in assay [1] is given as “grew”.

Take Tween 20: the Growth entry in the assay with VUN 110,010, with VUN 110,012, with VUN 110,013 and in the assay with VUN 110,011 was “+” throughout. Moreover, in assay [1], the “growth on compound” value was “grew”.

As to `Oc1ccccc1O` [Catechol], the Growth result in the assay on VUN 110,010, in the assay with VUN 110,012, with VUN 110,013 and with VUN 110,011 was “+” throughout. The “growth on compound” value in assay [1] was “grew”.

For the compound `O=[N+]([O-])c1ccccc1` [Nitrobenzene], the Growth result in the assay with VUN 110,010 is on record as “+”; in the assay with VUN 110,012, “+”; in the assay on VUN 110,013, “−”; in the assay with VUN 110,011, “−”.

On to `CC(=O)C(=O)O` [Pyruvate], for which the Growth entry with VUN 110,010, with VUN 110,012, in the assay with VUN 110,013 and with VUN 110,011 was “+” each time.

Consider `O=C(O)C=Cc1ccccc1` [Cinnamic acid], for which the Growth entry was “+” with VUN 110,010, “−” in the assay on VUN 110,012, “−” in the assay on VUN 110,013 and “−” in the assay with VUN 110,011.

For `Oc1c(Cl)c(Cl)c(Cl)c(Cl)c1Cl` [Pentachlorophenol], the Growth result in the assay on VUN 110,010 was “+”; in the assay on VUN 110,012, “+”; with VUN 110,013, “−”; in the assay on VUN 110,011 it was “−”.

Turning to `O=C(O)/C=C\C(=O)O` [Maleic acid], the Growth result in the assay on VUN 110,010, with VUN 110,012, with VUN 110,013 and with VUN 110,011 was “+” throughout.

On to `c1cc2ccc3ccc4ccc5ccc6ccc1c1c2c3c4c5c61` [Coronene, coronene], for which the “Maximum Specific Degradation Rate” value is 0.79 mg PAH degraded mg^−1 protein day^−1 in assay [2] (Brij 35 5 g l^−1, Single PAH); 1.19 mg PAH degraded mg^−1 protein day^−1 in assay [2] (Brij 35 10 g l^−1, Single PAH); 0.75 mg PAH degraded mg^−1 protein day^−1 in assay [2] (No Surfactant, Single PAH); 0.98 mg PAH degraded mg^−1 protein day^−1 in assay [2] (setting [3]); 0.79 mg PAH degraded mg^−1 protein day^−1 in assay [2] (setting [4]). Moreover, the “percentage change in maximum specific degradation rate due to surfactant addition” value was “+5%” in assay [2] (Brij 35 5 g l^−1, Single PAH); “+59%” in assay [2] (Brij 35 10 g l^−1, Single PAH); “+31%” in assay [2] (setting [3]); “+5%” in assay [2] (setting [4]). For the same compound, the “PAH degradation rate in the presence of surfactants” value in assay [2] (Tergitol NP-10 5 and 10 g l^−1, high initial cell population) was “did not show improved PAH degradation rate”.

With `CC(C)(CO)[C@@H](O)C(=O)NCCC(=O)O` [D-panthothenic acid], the Growth result in the assay with VUN 110,010, in the assay on VUN 110,012, in the assay on VUN 110,013 and in the assay on VUN 110,011 was “+” in each case.

With `O=[N+]([O-])c1ccc(O)cc1` [4-nitrophenol], the Growth entry with VUN 110,010, in the assay on VUN 110,012, in the assay with VUN 110,013 and in the assay on VUN 110,011 was “−” throughout.

`Oc1c(Cl)c(Cl)cc(Cl)c1Cl` [2,3,5,6-tetrachloro-phenol]: the Growth result with VUN 110,010, in the assay on VUN 110,012, in the assay with VUN 110,013 and in the assay with VUN 110,011 was “+” throughout.

For the compound `O=C(O)c1cc(O)ccc1O` [Gentisic acid], the Growth result with VUN 110,010, with VUN 110,012, in the assay on VUN 110,013 and in the assay on VUN 110,011 was “+” each time.

In the case of Tween 40, in assay [1], the “growth on compound” value was “grew”.

Take `Oc1cc(Cl)c(Cl)cc1Cl` [2,4,5-trichloro-phenol]: the Growth result in the assay on VUN 110,010, in the assay with VUN 110,012, in the assay with VUN 110,013 and in the assay on VUN 110,011 was “+” throughout.
